Measurements as given in patent US20160374368A9, “Mimicking the Metabolic Effect of Caloric Restrictions by Administration of Glucose Anti-Metabolites to Enhance Positive Response in a Mammal” (The Iams Company, priority 2013, published 2016).

Columns and labels:
[1] = cited from earlier work
rodents = conditions: cited from earlier work
hexokinase = conditions: cited from earlier work
[2] = injected into a rat; cited from earlier work
Labrador Retrievers [3] = test: Annual kennel assessment of affective behavior in dogs fed control diet or control diet+MH; assay type: in vivo
Description: Annual kennel assessments (period of 5 years) have been conducted on dogs fed a control diet or a control diet+MH. This assessment included two cohorts of Labrador Retrievers. Cohort 1 included 39 neutered Labrador Retrievers, 12 male and 27 female, ranged in age from 5.1 to 8.2 years old at the beginning of the test-feeding period (mean age at the beginning of the study 6.7 years). Cohort 2 included 41 neutered Labrador Retrievers, 12 males and 29 females ranged in age from 2.0 to 6.1 years old at the beginning of the test feeding period (mean age at the beginning of the study 4.0 years). Each cohort was fed a control diet or a test diet where the only differences was inclusion of mHep-enriched avocado extract targeted to supply 2 mg/kg body weight of MH. All researchers, lab assistants, and assessors were blinded to the feeding groups. Dogs were assessed during August and September each year. Each scorer was instructed to operate independently. Trained assessors were categorized as either familiar or unfamiliar to the dogs. The familiar assessors were people that worked with the dogs on a regular basis. […] Each assessing group was comprised of a handler and two scorers. All dogs were assessed with three people in the room with at least one familiar scorer in each group. This created a total of three possible conditions: familiar handler, two familiar scorers (Fam/Fam); familiar handler, one unfamiliar scorer, one familiar scorer (Fam/Unfam); unfamiliar handler, one unfamiliar scorer, one familiar scorer (Unfam/Unfam). The behaviors are outlined in Table 1. Calculating score: Assessors were asked to score dogs on a scale from 1-5 including half scores. For the behavior items, a score of 1 signified “Fails To Do” while 5 signified “Excellent”. For the demeanor items, a score of 1 signified “Strongly” while a score of 5 signified “Not at All”. All necessary items were reverse scored to allow higher scores to indicate a more favorable score and lower score to indicate a less favorable score. The sums of the corresponding behavior and demeanor items were used to calculate the score for each of the two behavior components. These scores were used to compare changes across years and between groups. [table]

[4] = cited from earlier work; remark: listed apart in the source
Labrador Retrievers [5] = test: Serum Trp:LNAA ratio in dogs fed control diet or control diet +MH (HPLC amino acid analysis); assay type: in vivo; conditions: 200 ppm MH in the diet
Description: Brain serotonin is known to influence the mood. Serotonin is synthesized in the brain from tryptophan, which uptake into the brain is dependent on the plasma ratio of tryptophan to the sum of other large neutral amino acids (Trp/LNAA). Other large amino acids include leucine, isoleucine, valine, phenylalanmine and tyrosine. It is well accepted that carbohydrate rich diets increase this ration and protein rich diets decrease the ration, in other words, when there is decrease in insulin sensitivity and a greater glycemic response, greater Trp/LNAA ratios are expected. Blood samples for amino acid analysis were collected from a total of 51 dogs fed a control diet or a control diet +MH. The blood samples were collected from two cohorts of Labrador Retrievers. Cohort 1 included 19 neutered Labrador Retrievers, 5 male and 14 female, ranged in age from 12.6 to 15.7 years old at the time of sampling. Cohort 2 included 32 neutered Labrador Retrievers, 9 males and 23 females ranged in age from 8.3 to 12.5 years old at the time of sampling. Each cohort was fed similar a control diet or a test diet where the only differences was inclusion of mHep enriched avocado juice concentrate targeted to supply 200 ppm MH in the diet. The avocado juice concentrate was derived from whole fruit (flesh, peel and pit) avocados. […]

[6] = injected, rats, cited from earlier work
cats = test: Behavioural assessment of play motivation in cats (weighted swing door); assay type: in vivo; conditions: vs same diets without MH
Description: Twenty cats (N=20) of similar age (˜2.5 years), and split 10 female (5 lean and 5 moderately overweight) and 10 male (5 lean and 5 moderately overweight). To effectively test the effects of MH on energy metabolism dietary energy needs, intended to maintain weight, were provided equally between animals on a body weight basis; therefore, each cat received 45 kcal ME/kg body weight/d (females) and 50 kcal ME/kg body weight/d (males).
For two weeks prior to the initiation of the study cats were fed Iams® Original Chicken. Diets were presented in kibble form and cats were fed individually at 7:00 am each day and will be permitted 60 minutes to eat during food offerings. This feeding protocol were maintained throughout the entire study except on days in which fasted blood/calorimetry samples are obtained as cats were fed following the sampling period which was no later than 9:00 am. […]
Two walled stalls (each measuring: 100 cm W×100 cm L×75 cm H; Quenn City polymers, Dayton, Ohio), one classified as the start box and the other the goal box, each with a plexi-glass roof containing a 1 cm diameter hole in the center, were placed next to each other and connected via a swing door (23 cm W×18 cm H). […] Cats were assessed two times per dietary treatment on day 14 and again on day 37 at approximately 5 hrs post feeding. […]

isolated rat hepatocytes = conditions: cited from earlier work
[7] = 2 mg/kg body weight MH, vs control diet

Compound: CO[C@@H]([C@H](O)[C@H](O)CO)[C@@H](O)C=O [3-O-methylglucose]
- metabolism of the analog ([1]; in contrast with 2-deoxy-D-glucose): not metabolized
- responses to administration (prevention of glucose utilization as energy source) relative to 2-deoxyglucose ([1]; rats): about seven times weaker than those to 2-deoxyglucose

Compound: O=CC[C@@H](O)[C@H](O)[C@H](O)CO [2-deoxy-D-glucose]
- side effects and toxicity (rodents; high doses): significant untoward side effects and toxicity have been observed
- mimicking metabolic hallmarks of caloric restriction (rodents; rodents, long-term, lower dose): can mimic some of the major metabolic hallmarks of caloric restriction and enhanced longevity, including reduced body temperature, weight loss, and lower fasting insulin levels

Compound: O=P(O)(O)OC[C@H]1OC[C@H](O)[C@@H](O)[C@@H]1O [1,5-anhydro-D-glucitol-6-phosphate]
- inhibition of hexokinase (hexokinase): allosteric (non-competitive) inhibitor of hexokinase

Compound: O=C[C@H](O)[C@@H](O)[C@H](O)[C@H](S)CO [5-Thioglucose, 5-thio-D-glucose]
- excreted unchanged in urine [2]: 97%

Compound: O=C(CO)[C@@H](O)[C@@H](O)[C@H](O)[C@H](O)CO [mannoheptulose]
- comfort in new areas score (Labrador Retrievers [3]; 2 mg/kg body weight MH, unfamiliar/unfamiliar condition, vs control diet): significantly better response
- score for ability to handle new areas (Labrador Retrievers [3]; [7]): higher scores
- score for social interaction (Labrador Retrievers [3]; [7]): higher scores
- social interaction score, difference between groups (Labrador Retrievers [3]; fam/fam or unfam/unfam condition): not different
- mannoheptulose ingested appearing in urine ([4]; after oral administration): About 5%
- safety of oral doses ([4]; doses of 10 grams, humans, orally): safely administered
- Trp:LNAA concentrations, fasting vs 4 hrs post fed (Labrador Retrievers [5]; Cohort 1 (older dogs), P>0.05): no differences
- Trp:LNAA concentrations, fasting vs 4 hrs post fed (Labrador Retrievers [5]; old and young cohorts pooled): no differences
- remained in the body ([6]; a day after the injection): 5%
- excreted unchanged [6]: 66%
- metabolized [6]: 29%
- motivation to play (cats): significantly greater motivation to play

Compound: OC[C@H]1OC[C@H](O)[C@@H](O)[C@@H]1O [1,5-Anhydro-D-Glucitol, 1,5-anhydro-D-glucitol]
- enzymatic conversion to the 6-phosphate (hexokinase; compared with 2-deoxy-glucose): less efficient than that of 2-deoxy-glucose

Compound: OC[C@H]1O[C@H](CO)[C@@H](O)[C@@H]1O [2,5-Anhydro-D-mannitol, 2,5-anhydro-D-mannitol]
- effect on glucose formation and utilization (isolated rat hepatocytes): interfere in glucose formation and utilization
